{"source": "patent US12643935B2", "about": "“PD-L1 binding peptides” (UNIVERSITY OF SOUTHERN CALIFORNIA, priority 2020, dated 2026)", "key": {"[1]": {"experiment": "Serum stability of ROX-SPAM by HPLC", "format": "in vitro ADME", "details": "25% human serum, 37° C., up to five hours", "quoted_text": "We first tested SPAM peptide stability by performing an HPLC-based assay to test if SPAM is degraded by human serum. We incubated ROX-labeled SPAM with 25% human serum at 37° C., took aliquots at different time points, then analyzed the products using HPLC.\nAt times 0, 15, 30, 120 and 300 min, 40 μL was removed and protein precipitated by the addition of 80 μL ethanol. Samples were centrifuged for 10 min at 16,000×g and the supernatant removed for HPLC analysis. A total of 100 μL volume was injected in a HPLC gradient of 10^−95% Buffer B over 15 minutes (Buffer A: dH2O with 0.1% (v/v) TFA, Buffer B: CH3CN+0.1% (v/v) TFA). Detection was performed at 570 nm."}, "[2]": {"molecular_target": "T1, hPD-L1 expressed on the surface of Chinese hamster ovary (CHO) cells (CHO-hPD-L1) (Homo sapiens, UniProt Q9NZQ7)", "T1 construct": "expressed in transfected cells; host or cells: CHO", "T1 sequence (Q9NZQ7 19-290)": "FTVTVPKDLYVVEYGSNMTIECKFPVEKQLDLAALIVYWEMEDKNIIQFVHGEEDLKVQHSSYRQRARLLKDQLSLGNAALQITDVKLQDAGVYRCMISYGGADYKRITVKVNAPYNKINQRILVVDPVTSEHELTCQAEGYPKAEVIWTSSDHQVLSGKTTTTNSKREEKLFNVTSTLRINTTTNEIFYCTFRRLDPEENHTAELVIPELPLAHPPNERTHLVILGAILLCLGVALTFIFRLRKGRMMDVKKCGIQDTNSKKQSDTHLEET", "experiment": "Antibody competition by flow cytometry on CHO-hPD-L1 cells", "format": "cell-based", "from_the_text": "To do this, we measured SPAM peptide inhibition of anti-PD-L1 antibody binding to hPD-L1 expressed on the surface of Chinese hamster ovary (CHO) cells (CHO-hPD-L1). […] Cells were washed again and analyzed by flow cytometry (FIG. 5B-C).\nCells were then washed three times with cold serum free DMEM. Cells were subsequently processed by flow cytometry with a BD FACSCalibur system using the FL1 channel. FlowJo v10.1 was used to gate to the major population and median FL1 fluorescence reported."}, "[3]": {"molecular_target": "T2, CHO-mPD-L1 cells which express mPD-L1 (Mus musculus, UniProt Q9EP73)", "T2 construct": "expressed in transfected cells; host or cells: CHO", "T2 sequence (Q9EP73 19-290)": "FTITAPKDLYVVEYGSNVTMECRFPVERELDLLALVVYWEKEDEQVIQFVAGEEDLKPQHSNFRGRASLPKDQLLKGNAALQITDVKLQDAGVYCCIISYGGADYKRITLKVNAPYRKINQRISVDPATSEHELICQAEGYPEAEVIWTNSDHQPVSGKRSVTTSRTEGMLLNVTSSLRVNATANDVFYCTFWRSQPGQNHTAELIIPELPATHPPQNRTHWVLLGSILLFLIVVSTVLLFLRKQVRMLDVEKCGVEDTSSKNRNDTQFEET", "experiment": "Antibody competition by flow cytometry on CHO-mPD-L1 cells", "format": "cell-based", "details": "pre-treatment 0-20 μM, 50 nM antibody", "protocol": "We performed similar experiments with CHO-mPD-L1 cells which express mPD-L1 to determine if this effect was specific to hPD-L1 expression. We have developed two cross-reactive anti-hPD-L1/mPD-L1 antibodies, 16373 and 16377. These antibodies were labeled with Fluorescein, titrated against CHO-hPD-L1 and CHO-mPD-L1 cells (FIG. 12B-C) and subjected to competition experiments as described above.\nThe cells were washed once with cold serum free DMEM and incubated with 1 nM FAM-Atezolizumab, 10 nM FAM-Avelumab, 50 nM FAM-16373, or 50 nM FAM-16377 in serum free DMEM at 4° C. for 30 min. Cells were then washed three times with cold serum free DMEM. Cells were subsequently processed by flow cytometry with a BD FACSCalibur system using the FL1 channel. FlowJo v10.1 was used to gate to the major population and median FL1 fluorescence reported."}, "hPD-L1 [4]": {"molecular_target": "T3, hPD-L1 (Homo sapiens, UniProt Q9NZQ7)", "experiment": "hPD-L1 binding of [35S]-SPAM after incubation in 25% human serum", "format": "in vitro ADME", "parameters": "designed from A18 to T239 with a methionine added to the N-terminus; hexahistidine tag (C); made in house", "details": "37° C.", "protocol": "We performed two complementary assays to determine what effect serum has on the SPAM/hPD-L1 interaction.\nIn a complementary test, SPAM was in vitro translated and [^35S]-labeled as described above. After purification as above, the [^35S]-labeled peptide-RNA fusions were incubated with DMEM media supplemented with 25% (v/v) single donor human plasma at 37° C. in triplicate for 0, 60, 120, 240 and 480 min. The binding of serum incubated peptides was then evaluated on hPD-L1 immobilized beads using 75 pmol hPD-L1 immobilized on streptavidin agarose beads (Thermo Fisher scientific) in DMEM supplemented with 25% Serum buffer and 0.02 mM biotin at 4° C. for 1 h. The supernatant was removed and was counted. The beads were subsequently washed three times with 1 mL of blocking buffer and the washes were also counted. Finally, the beads were resuspended in 1 mL of blocking buffer and were counted separately. The ratio of the counts remaining on the beads to the total counts added to the binding reaction (the sum of the counts for supernatant, washes, and beads) was calculated to determine the percent bound."}, "hPD-L1 [5]": {"molecular_target": "T3, hPD-L1", "experiment": "Fluorescence polarization of ROX-labeled SPAM with glycosylated hPD-L1*", "format": "binding", "parameters": "The hPD-L1* vector included amino acids A18-T239, an Avi Tag and a hexahistidine tag; hexahistidine tag; made in house; host or cells: Expi293F", "details": "T=22° C., 100 nM ROX-SPAM, read-out: dissociation constant (KD) for hPD-L1*", "protocol": "To evaluate the affinity of SPAM for hPD-L1 and hPD-L1*, we measured the KD by fluorescence polarization. […] The resulting values were plotted against the concentration of hPD-L1 or hPD-L1* and fit to a one-site saturation binding model with GraphPad Prism.\nA stock solution of hPD-L1 or hPD-L1* with a 5 μM starting concentration was prepared and serially diluted to concentrations ranging from 5 μM to 2.4 nM. […] The fluorescence polarization of each sample was measured on a Synergy H4 Hybrid Multi-Mode Microplate Reader. Each measurement was carried out in triplicate and the mean value was calculated. The values were fit to a one-site saturation binding model in GraphPad Prism to obtain the corresponding equilibrium dissociation constants."}}}
{"smiles": "C#CC[C@H](NC(=O)CNC(=O)[C@H](CO)NC(=O)[C@H](C)NC(=O)[C@H](Cc1ccc(O)cc1)NC(=O)[C@H](Cc1c[nH]cn1)NC(=O)[C@H](CC(C)C)NC(=O)[C@@H](NC(=O)[C@H](Cc1c[nH]c2ccccc12)NC(=O)[C@H](Cc1ccccc1)NC(=O)[C@H](CCCCN)NC(=O)[C@H](CC(N)=O)NC(=O)[C@H](CC(C)C)NC(=O)[C@@H](NC(=O)[C@H](Cc1c[nH]cn1)NC(=O)[C@H](CC(=O)O)NC(=O)[C@H](CC(C)C)NC(=O)[C@H](Cc1ccccc1)NC(=O)[C@@H](NC(=O)[C@@H]1CCCN1C(=O)[C@@H](N)CCSC)[C@@H](C)CC)[C@@H](C)CC)[C@@H](C)CC)C(N)=O", "note": "(stereo in doubt) [SPAM]", "values": [{"measurement": "degradation in human serum (HPLC)", "setting": "[1]", "value": "stable"}, {"measurement": "Fluorescein-Atezolizumab and Fluorescein-Avelumab binding to CHO-hPD-L1 after pre-incubation", "setting": "[2]; pre-incubation 30 min 4° C., 0-20 μM, SPAM effect at 20 μM, 1 nM Atezolizumab, 10 nM Avelumab", "value": "significant decrease"}, {"measurement": "blocking of Fluorescein-16373 and Fluorescein-16377 in CHO-hPD-L1 cells", "setting": "[2]; pre-treatment 0-20 μM, 50 nM antibody", "value": "blocking"}, {"measurement": "blocking of Fluorescein-16373 and Fluorescein-16377 in CHO-mPD-L1 cells", "setting": "[3]", "value": "blocking was absent"}, {"measurement": "loss of binding in presence of human serum", "setting": "hPD-L1 [4]", "value": "~25", "unit": "%"}, {"measurement": "binding to immobilized hPD-L1 after serum incubation", "setting": "hPD-L1 [4]; eight hours", "value": "no further decrease"}, {"measurement": "binding to immobilized hPD-L1 after serum incubation", "setting": "hPD-L1 [4]; four hours", "value": "slight decrease"}, {"measurement": "binding to immobilized hPD-L1 after serum incubation", "setting": "hPD-L1 [4]; two hours", "value": "No decrease"}, {"measurement": "Kd", "setting": "hPD-L1 [5]", "value": 67, "unit": "nM"}]}
